Assay results published in patent US20120027687A1, “FATTY ACID PROTEIN KINASE C ACTIVATORS AND ANTICOAGULANT FOR THE TREATMENT OF STROKE” (priority 2010, published 2012).

What was measured:
[1] = biological target: protein kinase C; conditions: (−)-enantiomer; read-out: potency (EC50); cited from earlier work
[2] = tested on: TACE; assay: TACE activity in neuronal cells; assay type: cell-based, human, mouse; conditions: SH-SY5Y cells, N2a cells, primary neurons from rat hippocampus
Protocol: TACE Assay. TACE was measured by incubating 5 μl cell homogenate, 3 μl buffer (50 mM Tris-HCl 7.4 plus 25 mM NaCl plus 4% glycerol), and 1 μl of 100 μM TACE substrate (Aβz-[…]-DPa) (Calbiochem) for 20 min at 37° C. 1.5-ml polypropylene centrifuge tubes. Jin et al., Anal. Biochem. (2002), vol. 302, pp. 269-275. The reaction was stopped by cooling to 4° C. The samples were diluted to 1 ml and the fluorescence was rapidly measured (ex=320 nm, em=420 nm) in a Spex Fluorolog 2 spectrofluorometer.

[3] = tested on: SH-SY5Y neuroblastoma cells; assay: Cell survival and proliferation (alamar Blue, CyQuant); assay type: cell-based, human; conditions: alamar Blue and CyQuant staining
Protocol: (§1) Aβ Measurement and Cell Viability Assay. Aβ was measured using an Aβ 1-42 human fluorimetric ELISA kit (Invitrogen) according to the manufacturer's instructions. Results were measured in a Biotek Synergy HT microplate reader. AlamarBlue and CyQuant NF (Invitrogen) according to the manufacturer's instructions.

[4] = biological target: T1, PKCε (Homo sapiens, UniProt Q02156); assay: PKC assay with purified PKCε; assay type: biochemical
T1 construct: purchased Calbiochem
T1 sequence (Q02156 1-737): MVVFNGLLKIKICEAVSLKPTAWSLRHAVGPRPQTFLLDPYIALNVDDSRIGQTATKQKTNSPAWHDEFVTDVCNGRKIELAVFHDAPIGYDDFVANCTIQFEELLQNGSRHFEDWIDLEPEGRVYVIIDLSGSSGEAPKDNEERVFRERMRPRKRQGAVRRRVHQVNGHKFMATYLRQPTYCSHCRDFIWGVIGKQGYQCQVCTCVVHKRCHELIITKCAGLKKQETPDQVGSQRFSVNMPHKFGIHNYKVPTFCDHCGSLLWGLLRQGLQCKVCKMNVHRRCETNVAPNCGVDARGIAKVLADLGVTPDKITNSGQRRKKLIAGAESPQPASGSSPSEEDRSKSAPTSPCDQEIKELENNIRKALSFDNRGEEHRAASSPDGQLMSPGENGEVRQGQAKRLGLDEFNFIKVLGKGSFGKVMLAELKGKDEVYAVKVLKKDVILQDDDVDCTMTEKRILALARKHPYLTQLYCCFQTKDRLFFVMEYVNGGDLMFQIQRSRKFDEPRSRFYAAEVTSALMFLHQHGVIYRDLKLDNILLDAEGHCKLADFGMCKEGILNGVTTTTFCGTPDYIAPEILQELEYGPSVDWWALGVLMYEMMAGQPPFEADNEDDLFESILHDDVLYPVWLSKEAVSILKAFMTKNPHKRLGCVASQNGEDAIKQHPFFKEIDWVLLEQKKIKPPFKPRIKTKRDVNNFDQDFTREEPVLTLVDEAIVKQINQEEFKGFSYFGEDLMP
Protocol: PKC assay. […] 0.5 micro Ci[^γ32P]ATP was added. […] The reaction was stopped by spotting the reaction mixtures on 1×2 cm strips of cellulose phosphate paper (Whatman P81) and immediately washing twice for 1 hr in 0.5% H3PO4. The cellulose phosphate strips were counted in a scintillation counter. In some experiments, phosphatidylserine, diacylglycerol, and/or calcium were removed. […]
To determine their PKC isozyme specificity, fatty acid derivatives were preincubated with purified PKC for five minutes and the PKC activity was measured radiometrically.

[5] = tested on: Aβ; assay: Degradation of exogenously applied Aβ in SH-SY5Y cells; assay type: cell-based, human; conditions: 0.01 μM to 10 μM; 100 nM exogenous Aβ-42; 24 hours
Protocol: (§2) Cell culture. Rat hippocampal H19-7/IGF-IR cells (ATCC, Manassas, Va.) were plated onto poly-L-lysine coated plates and grown at 35° C. in DMEM/10% FCS for several days until about 50% coverage was obtained. The cells were then induced to differentiate into a neuronal phenotype by replacing the medium with 5 ml N2 medium containing 10 ng/ml basic fibroblast growth factor at 39° C. and grown in T-75 flasks at 37° C. Human SH-SY5Y neuroblastoma cells (ATCC) were cultured in 45% F12K/45% MEM/10% FCS. Mouse N2A neuroblastoma cells were cultured in DMEM/10% FCS without glutamine. Rat hippocampal neurons from 18-day-old embryonic Sprague Dawley rat brains were plated on 12- or 96-well plates coated with poly-D-lysine (Sigma-Aldrich, St. Louis, Mo.) in B-27 neurobasal medium containing 0.5 mM glutamine and 25 μM glutamate (Invitrogen, Carlsbad, Calif.) and cultured for three days in the medium without glutamate. The neuronal cells were grown under 5% CO2 in an incubator maintained at 37° C. for 14 days.
as §1
This concentration of Aβ is too low to produce measurable toxicity or cell death. […]

[6] = tested on: Aβ; assay: Aβ production in N2a neuroblastoma cells transfected with human APPSwe/PSID; assay type: cell-based, mouse; conditions: 24 hours
Protocol: as §2, §1
To measure the effects of PKCε activation on Aβ production, mouse neuro2a (N2a) neuroblastoma cells transfected with human APPSwe/PSID were used, which produce large quantities of Aβ. Petanceska et al., J. Neurochem. (1996), vol. 74, pp. 1878-1884. […] With bryostatin, which activates PKC by binding to the diacylglycerol-binding site, the inhibition was biphasic with concentrations of 20 nM or higher producing no net effect. This may be explained by the ability of this class of PKC activators to downregulate PKC when used at high concentrations.

[7] = tested on: Endothelin-converting enzyme (ECE); assay: Endothelin-converting enzyme (ECE) activity in neuroblastoma cells; assay type: cell-based, human; conditions: bryostatin 0.27 nM, BR-101 1 μM, BR-111 1 μM
Protocol: ECE assay. […] neuroblastoma cells were incubated with bryostatin (0.27 nM), BR-101 (DCP-LA) (1 μM), and BR-111 (DHA-CP6) (1 μM). Endothelin-converting enzyme (ECE) was measured fluorimetrically using the method of Johnson and Ahn (Anal. Biochem. (2000), vol. 286, pp. 112-118). A sample of cell homogenate (20 μl) was incubated in 50 mM MES-KOH, pH 6.0, 0.01% C12E10 (polyoxyethylene-10-lauryl ether), and 15 μM McaBK2 (7-Methoxycoumarin-4-acetyl [Ala7-(2,4-Dinitrophenyl)Lys9]-bradykinin trifluoroacetate salt) (Sigma-Aldrich). After 60 min at 37° C., the reaction was quenched by adding trifluoroacetic acid to 0.5%. The sample was diluted to 1.4 ml with water and the fluorescence was measured at ex=334 nm, em=398 nm.

SMILES	EC50 [1]	TACE activity [2]	effect on cell survival [3]	effect on proliferation [3]	concentration needed to activate PKC, times lower than for BR-101 (DCP-LA) [4]	effect on purified PKCε (FIG. 7, FIG. 8) ([4]; preincubated five minutes, radiometric)	reduction of cellular levels of Aβ [5]	levels of intracellular Aβ ([6]; various concentrations)	levels of secreted Aβ ([6]; various concentrations)	concentration dependence of Aβ inhibition ([6]; fatty acid derivatives up to 10 μM to 100 μM)	ECE activity [7]
CCCCCCCCc1ccc2c3c(c[nH]c13)C[C@@H](CO)NC(=O)[C@H](C(C)C)N2C [Octylindolactam V]	29 nM	–	–	–	–	–	–	–	–	–	–
CCC1CC1CC1CC1CC1CC1CC1CC1CC1CC1CC1CC1CCC(=O)OC (centres unmarked) [BR-111, methyl-3-(2-((2-((2-((2-((2-((2-ethylcyclopropyl)methyl)cyclopropyl)methyl)cyclopropyl)methyl)-cyclopropyl)methyl)cyclopropyl)methyl)cyclopropyl)propanoate]	–	small increases	no effect	no effect	approximately 100 times	activated	45%-63%	markedly reduced	markedly reduced	monotonically increasing inhibition	sustained increase
